Assay results from patent publication US20240336577A1, “PYRAZINE COMPOUND, AND METHOD OF PREPARATION AND USE THEREOF” (SHENZHEN OLIVE BIOPHARMACEUTICALS CO., LTD, priority 2020, published 2024).

Key:
SH—SY5Y cells = assay: Neuroprotection against oxygen glucose deprivation (OGD), MTT assay; type: cell-based; conditions: 4 h OGD, FIG. 1
Method: Neuroprotective effect of tetramethylpyrazine (TMP) and derivatives thereof was evaluated by MTT assay. Cells were incubated, log-phase cells were collected, a concentration of a cell suspension was adjusted, an MTT-containing medium was added after chemical treatment and 4 h of incubation with OGD, incubation was conducted for 4 h, the medium in the wells was carefully removed, and 150 μl of dimethyl sulfoxide (DMSO) was added to each well, shaken at a low speed for 10 min on a shaker to fully dissolve crystals, and an absorbance value of each well was measured at an OD (absorbance) value of 490 nm of an enzyme-linked immunosorbent assay instrument (at the same time, a zero adjustment well (medium, MTT, DMSO), a control well (cells, a drug dissolution medium with the same concentration, medium, MTT, DMSO)). Data were presented as mean±SEM; n=8 per group. One-way ANOVA and multiple range test were adopted to show differences between the two groups. a, p<0.001 vs. control group; b, p<0.05 vs. OGD group; c, p<0.001 vs. OGD group.

5*FAD mice [1] = assay: Pro-inflammatory factors in hippocampus of 5*FAD mice, ELISA; type: in vivo; conditions: 6-month-old 5*FAD mice treated 3 months, low and high dosage; FIG. 3 and FIG. 4
Method: After 6-month-old 5*FAD mice were treated with OLB-1 and OLB-2 for 3 months, the levels of IL-1β (A) and TNFα (B) in mouse hippocampus were detected by ELISA. 5*FAD mice were treated with low-dosage and high-dosage OLB-1 (low dosage: 2.31 mg/kg, 0.007 mmol/kg; high dosage: 11.70 mg/kg, 0.037 mmol/kg, the same below) and OLB-2 (low dosage: 2.3 mg/kg, 0.007 mmol/kg; high dosage: 11.67 mg/kg, 0.037 mmol/kg, the same below) and TMP (5.0 mg/kg, 0.037 mmol/kg, the same below). Data were presented as mean±SEM; n=5 to 6 per group. One-way ANOVA and multiple range test were adopted to show differences between the two groups. **p<0.01, ***p<0.001 vs. WT group; #p<0.05, ##p<0.01, ###p<0.001 vs. 5*FAD group.

5*FAD mice [2] = assay: Memory impairment in 5*FAD mice, electrical jumping (errors jumping off the platform); type: in vivo; conditions: 6-month-old 5*FAD mice treated 3 months, low and high dosage; FIG. 5
Method: After 6-month-old 5*FAD mice were treated with OLB-1 and OLB-2 for 3 months, the number of errors that the mice jumped off the platform was detected by electrical jumping. 5*FAD mice were treated with low-dosage and high-dosage OLB-1 (low dosage: 2.31 mg/kg, 0.007 mmol/kg; high dosage: 11.70 mg/kg, 0.037 mmol/kg) and OLB-2 (low dosage: 2.3 mg/kg, 0.007 mmol/kg; high dosage: 11.67 mg/kg, 0.037 mmol/kg) and TMP (5.0 mg/kg, 0.037 mmol/kg, the same below). Data were presented as mean±SEM; n=10 per group. One-way ANOVA and multiple range test were adopted to show differences between the two groups. ***p<0.001 vs. WT group; #p<0.05, ##p<0.01 vs. 5*FAD group.

Structure (SMILES) | death of SH—SY5Y cells caused by OGD (SH—SY5Y cells) | proinflammatory cytokine IL-1β in hippocampus (5*FAD mice [1]) | proinflammatory cytokine TNF-α in hippocampus (5*FAD mice [1]) | memory impairment (number of errors jumping off the platform) (5*FAD mice [2])
Cc1nc(C)c(COC(=O)OCCc2ccc(O)cc2)nc1C [OLB-1] | significantly reduce the death | significantly reduced | significantly reduced | significantly improve memory impairment
Cc1nc(C)c(CNC(=O)OCCc2ccc(O)cc2)nc1C [OLB-2] | significantly reduce the death | significantly reduced | significantly reduced | significantly improve memory impairment
